The structures appear in SMILES notation. Read-outs that look alike come from different tables or passages of the source.

In test [1] the target is T1, human α2C‐adrenoceptor (Homo sapiens, UniProt P18825).
T1 sequence (P18825 1-462): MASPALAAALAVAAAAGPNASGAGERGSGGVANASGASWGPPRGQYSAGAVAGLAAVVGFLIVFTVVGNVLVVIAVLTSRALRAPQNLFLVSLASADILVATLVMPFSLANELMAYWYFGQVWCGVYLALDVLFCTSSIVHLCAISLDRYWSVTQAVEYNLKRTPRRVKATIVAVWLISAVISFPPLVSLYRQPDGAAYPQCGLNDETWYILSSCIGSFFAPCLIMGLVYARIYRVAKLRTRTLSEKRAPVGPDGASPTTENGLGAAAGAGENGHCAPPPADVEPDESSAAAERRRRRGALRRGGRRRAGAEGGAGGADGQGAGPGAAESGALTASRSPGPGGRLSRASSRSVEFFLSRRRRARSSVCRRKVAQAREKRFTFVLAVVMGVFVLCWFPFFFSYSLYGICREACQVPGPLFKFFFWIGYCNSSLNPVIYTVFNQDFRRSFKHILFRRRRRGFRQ
As to the kind of experiment: cell-based.

The target in test [2] is human β2‐adrenoceptor (Homo sapiens, UniProt P07550). The test is classed as binding. To be noted: for IC50: read-out: IC50 (log) β2, IC50>top concentration used (converted).
Sequence of human β2‐adrenoceptor (P07550 whole entry): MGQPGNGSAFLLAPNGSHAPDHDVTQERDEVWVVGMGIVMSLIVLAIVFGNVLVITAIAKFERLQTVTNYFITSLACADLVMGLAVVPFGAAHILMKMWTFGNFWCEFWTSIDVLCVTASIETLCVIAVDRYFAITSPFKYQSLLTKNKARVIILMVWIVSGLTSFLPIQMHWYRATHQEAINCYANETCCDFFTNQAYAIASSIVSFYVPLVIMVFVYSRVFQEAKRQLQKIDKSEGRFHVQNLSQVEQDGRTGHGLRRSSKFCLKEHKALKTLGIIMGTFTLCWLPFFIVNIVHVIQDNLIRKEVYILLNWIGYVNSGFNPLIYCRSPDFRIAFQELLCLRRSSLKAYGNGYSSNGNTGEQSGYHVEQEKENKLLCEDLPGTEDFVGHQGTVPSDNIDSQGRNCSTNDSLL
Test [3] concerns the target T2, human β1‐adrenoceptor (Homo sapiens, UniProt P08588). The test can be described thus: cell-based.
Test [4] addresses T3, human α2B‐adrenoceptor (Homo sapiens, UniProt P18089).
T3 sequence (P18089 1-450): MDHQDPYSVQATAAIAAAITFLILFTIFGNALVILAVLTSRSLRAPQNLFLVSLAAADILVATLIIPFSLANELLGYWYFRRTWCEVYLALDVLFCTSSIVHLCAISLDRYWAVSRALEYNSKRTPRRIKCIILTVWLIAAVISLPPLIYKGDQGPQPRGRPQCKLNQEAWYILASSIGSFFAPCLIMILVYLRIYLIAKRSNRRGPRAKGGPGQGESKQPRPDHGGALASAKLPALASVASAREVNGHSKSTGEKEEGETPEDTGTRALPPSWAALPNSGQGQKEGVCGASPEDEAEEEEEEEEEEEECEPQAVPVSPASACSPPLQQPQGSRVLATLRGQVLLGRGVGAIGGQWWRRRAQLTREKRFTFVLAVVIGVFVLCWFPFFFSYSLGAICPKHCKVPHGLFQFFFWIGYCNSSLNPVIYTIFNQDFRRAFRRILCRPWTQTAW
As to the kind of experiment: ^3H‐rauwolscine whole cell competition binding, CHO‐α2B cells.

Test [5] deals with T4, human α2A‐adrenoceptor (Homo sapiens, UniProt P08913).
T4 sequence (P08913 1-465): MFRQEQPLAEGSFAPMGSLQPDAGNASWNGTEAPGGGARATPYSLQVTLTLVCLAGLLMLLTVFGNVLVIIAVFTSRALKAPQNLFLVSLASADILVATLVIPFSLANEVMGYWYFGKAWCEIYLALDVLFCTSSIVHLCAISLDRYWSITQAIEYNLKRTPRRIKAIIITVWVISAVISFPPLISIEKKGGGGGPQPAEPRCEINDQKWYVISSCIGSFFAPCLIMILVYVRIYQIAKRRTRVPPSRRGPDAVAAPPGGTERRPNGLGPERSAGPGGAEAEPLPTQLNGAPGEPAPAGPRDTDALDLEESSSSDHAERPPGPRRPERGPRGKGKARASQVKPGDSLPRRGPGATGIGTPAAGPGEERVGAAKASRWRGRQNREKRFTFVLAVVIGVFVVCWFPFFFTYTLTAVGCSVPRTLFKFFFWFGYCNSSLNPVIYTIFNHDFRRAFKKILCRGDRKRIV
As to the kind of experiment: cell-based.

In test [6] the target is T1, human α2C‐adrenoceptor. As to the kind of experiment: ^3H‐rauwolscine whole cell competition binding, CHO‐α2C cells.
Test [7] concerns the target T4, human α2A‐adrenoceptor. The test can be described thus: ^3H‐rauwolscine whole cell competition binding, CHO‐α2A cells.
Test [8] deals with T2, human β1‐adrenoceptor. The following applies: mean ± s.e.mean.
Test [9] concerns the target T1, human α2C‐adrenoceptor.
Test [10] addresses T4, human α2A‐adrenoceptor.
Where [11] appears, read: ^3H‐CGP12177 whole cell binding, log values, ^app = apparent KD, 'no binding to' = log top concentration.
The mark [12] stands for this setting: ^3H‐CGP12177 whole cell binding, log values, mean ± s.e.mean, ^app = apparent KD, 'no binding to' = log top concentration.

T2 sequence (P08588 whole entry): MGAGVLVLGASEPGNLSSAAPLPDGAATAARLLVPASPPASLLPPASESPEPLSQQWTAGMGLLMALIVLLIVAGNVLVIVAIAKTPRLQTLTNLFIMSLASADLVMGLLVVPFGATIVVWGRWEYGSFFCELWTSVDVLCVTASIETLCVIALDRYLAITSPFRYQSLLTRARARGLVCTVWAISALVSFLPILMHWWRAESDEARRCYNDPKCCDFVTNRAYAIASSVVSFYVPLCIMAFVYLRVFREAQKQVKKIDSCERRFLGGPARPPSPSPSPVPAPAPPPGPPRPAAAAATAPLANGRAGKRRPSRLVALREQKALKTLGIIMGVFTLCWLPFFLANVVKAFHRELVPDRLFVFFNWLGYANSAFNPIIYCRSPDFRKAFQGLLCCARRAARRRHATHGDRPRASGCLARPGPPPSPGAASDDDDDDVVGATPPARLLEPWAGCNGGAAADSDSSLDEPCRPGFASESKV

`CC(CN1c2ccccc2Sc2ccccc21)N(C)C` (stereo not drawn) [promethazine]: the Kd in test [1] is 2880 nM. Further, the IC50 in test [2] (^3H‐CGP12177, log value) was above 100 µM; in test [3] it was above 100 µM.

As for `CC(C)NCC(O)COc1cccc2[nH]c3ccccc3c12` (stereo not drawn) [carazolol], the IC50 in [4] was above 100 µM. Further, the values for the Kd in [1] and in test [5] were 21900 nM and 21.9 µM, respectively.

Take `CN(C)CCC=C1c2ccccc2CCc2ccccc21` [amitriptyline]: the Kd in test [1] was 214 nM; in test [5], 1.38 µM. The IC50 is above 100 µM in test [2] (^3H‐CGP12177, log value) and above 100 µM in test [3].

For the compound `CNCC[C@H](Oc1cccc2ccccc12)c1cccs1` [duloxetine], the Kd in test [6] was 2140 nM; in test [4] it was 4900 nM; in test [7] it was 3.72 µM. Also, in [3], the IC50 is above 31.6 µM.

Take `COc1cc2nc(N3CCN(C(=O)C4CCCO4)CC3)nc(N)c2cc1OC` (stereo not drawn) [terazosin]: the “Log KD β1” value in test [8] (setting [11]) is “No binding to −4”; in [8] (given as log KD (negative values), 3H-CGP12177 whole cell binding, CHO cells) it was “No binding to -4”. For the same compound, the Kd in test [5] was 6.61 µM. Also, the “Log KD β2” value in test [2] (setting [12]) was “No binding to −4”; in test [2] (given as log KD (negative values), 3H-CGP12177 whole cell binding, CHO cells, mean ± s.e.mean) it was “No binding to -4”.

With `COC(=O)C1=C(C)NC(C)=C(C(=O)NCCCN2CCC(c3ccccc3)(c3ccccc3)CC2)C1c1ccc([N+](=O)[O-])cc1` (stereo not drawn) [SNAP5089], the IC50 in test [2] and in test [3] was above 10 µM throughout.

On to `COc1ccc(C(CN(C)C)C2(O)CCCCC2)cc1` (stereo not drawn) [venlafaxime], for which the Kd in test [9] is 182 µM; in test [10] it was 346.7 ± 3.01 µM. Also, the “Log KD β1” value in test [8] (setting [11]) is given as −3.80 ± 0.11^app. Also, the “Log KD β2” value in test [2] (setting [12]) is −4.13 ± 0.13^app.

With `Fc1ccc([C@@H]2CCNC[C@H]2COc2ccc3c(c2)OCO3)cc1` [paroxetine], the IC50 is above 10 µM in [6]; above 31.6 µM in test [2] (^3H‐CGP12177, log value); above 31.6 µM in test [3].

As for `CNCCCC1c2ccccc2C=Cc2ccccc21` [protriptyline], the Kd in test [5] was 10 µM.

As to `CC(C(O)c1ccc(O)cc1)N1CCC(Cc2ccccc2)CC1` (stereo not drawn) [ifenprodil], the “Selectivity ratio α2A vs α2C (higher affinity for α2C)” value in test [6] (ratio of KD values) was 6.2. Further, the “Selectivity ratio α2B vs α2C (higher affinity for α2C)” value in test [6] (ratio of KD values) is 4.6. Besides, the Kd is 724 nM in test [4], 158 nM in test [1] and 0.977 µM in [5]. Also, the “Selectivity ratio α2A vs α2B (higher affinity for α2B)” value in [4] (ratio of KD values) came out at 1.3. Besides, the IC50 in test [2] (^3H‐CGP12177, log value) is above 10 µM; in test [3], above 10 µM.

Take `COc1ccccc1N1CCN(CCCNc2cc(=O)n(C)c(=O)n2C)CC1` [urapidil]: the Kd is 3.24 µM in test [5] and 10 µM in [2] (^3H‐CGP12177 whole cell binding, log values, mean ± s.e.mean, ^app = apparent KD, 'no binding to' = log top concentration, read-out: Log KD β2 (converted)).

The values above are taken from article PMC8882856, “The affinity and selectivity of α‐adrenoceptor antagonists, antidepressants and antipsychotics for the human α2A, α2B, and α2C‐adrenoceptors and comparison with human α1 and β‐adrenoceptors” (Pharmacology Research & Perspectives, 2022).
